Test results as given in the supplement of paper PMC4862054.

Assays:
Conditions in all cases: incubation time: 72 h
Hs578T = test: normalised response (% of control), CellTiter-Glo; higher = more viable cells (100 = DMSO, 0 = benzethonium chloride kill control)
Summary of the method: (§1)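 Each value is the plate-normalised signal at one concentration of the series. Breast cancer cell lines (20 µl suspension) were incubated 72 h in 384-well plates with compound at 5 concentrations in 10-fold steps over a compound-specific 10,000-fold range. CellTox Green and then CellTiter-Glo were read, and each plate was scaled to 0.1 % DMSO (100) and a positive kill control (0).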

HDQ-P1 [1] = test: as above
Summary of the method: as §1

MDA-MB-436 = test: as above
Summary of the method: as §1

MDA-MB-468 = test: as above
Summary of the method: as §1

MCF-10A = test: as above
Summary of the method: as §1

HCC1599 = test: as above
Summary of the method: as §1

BT-474 = test: as above
Summary of the method: as §1

CAL-120 = test: as above
Summary of the method: as §1

CAL-148 [2] = test: as above
Summary of the method: as §1

DU-4475 [3] = test: as above
Summary of the method: as §1

MFM-223 = test: as above
Summary of the method: as §1

BT-549 = test: as above
Summary of the method: as §1

HDQ-P1 [4] = test: normalised viability (% of control), CellTiter-Blue; higher = more viable cells (about 100 = DMSO control)
Summary of the method: (§2)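 384-well plates were pre-loaded with compound in 5 µl medium before 20 µl of breast cancer cell suspension was seeded. Following 72 h incubation, 2.5 µl CellTiter-Blue reagent was added for 2 h at 37 °C. Fluorescence was read at 560/590 nm and plates were normalised to vehicle (100) and a positive kill control (0), checked by Z'-factor. Normalised viability is reported at a single listed concentration of the series.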

CAL-85-1 = test: as above
Summary of the method: as §2

CAL-51 = test: as above
Summary of the method: as §2

CAL-148 [5] = test: as above
Summary of the method: as §2

DU-4475 [6] = test: as above
Summary of the method: as §2

MDA-MB-453 = test: as above
Summary of the method: as §2

## CCS(=O)(=O)c1cccc(-c2cc(C(=O)NC3CCN(C)CC3)c(C)c3[nH]c4ncc(C)cc4c23)c1 [TAK-901] (100 nM)
Hs578T
  normalised response: 98.2%
HDQ-P1 [1]
  normalised response: 86.2%
MDA-MB-436
  normalised response: 97.2%
MDA-MB-468
  normalised response: 38.5%
MCF-10A
  normalised response: 80.2%
HCC1599
  normalised response: 109%
BT-474
  normalised response: 82%
CAL-120
  normalised response: 81.5%
CAL-148 [2]
  normalised response: 45.6%
DU-4475 [3]
  normalised response: 98.5%
MFM-223
  normalised response: 79.5%
BT-549
  normalised response: 82%
HDQ-P1 [4]
  normalised viability: 87.2%
CAL-85-1
  normalised viability: 70.4%
CAL-51
  normalised viability: 56.5%
CAL-148 [5]
  normalised viability: 40.3%
DU-4475 [6]
  normalised viability: 78.5%
MDA-MB-453
  normalised viability: 65%
